Our source for the EC50 values is patent US20250171457A1, “NITROGEN-CONTAINING HETEROCYCLIC COMPOUND HAVING NRF2 ACTIVATION EFFECT” (CHUGAI SEIYAKU KABUSHIKI KAISHA, priority 2022, published 2025).

SMILES strings stand for the structures.

As a reminder, the EC50 is the concentration at which the effect is half-maximal. A lower EC50 goes with a more potent agent.

The assay concerns Nrf2 transcriptional activity (pARE-Luc reporter) in HepG2 cells. Nature of the assay: In vitro Nrf2 transcriptional activity measurement by ARE-dependent reporter assay in HepG2 cell. Particulars: Homo sapiens; HepG2 cells transfected with pARE-Luc, 4 hours at 37° C.; luciferase activity of Example 1-54 or Example 17-23 at 3.75 μM defined as 100%. Format: cell-based, human. In a few lines:
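HepG2 cells transfected with pGL4.37 (pARE-Luc), replated onto compound and incubated 4 h at 37° C; luciferase read by Bright-Glo luminescence. Response normalized to 100% set by a reference compound at 3.75 μM; EC50 from dose-response curve.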
For orientation: In a reporter assay the amount or activity of a reporter protein is the signal.
Compound `[2H]C1([2H])c2cccc(-c3ccc(C(=O)O)c(N4CCOCC4)c3)c2OCN1C(=O)c1c(Cl)cc(-c2cnn(C)c2)cc1Cl` [Compound 14-7, 4-[4,4-Dideuterio-3-[2,6-dichloro-4-(1-methylpyrazol-4-yl)benzoyl]-2H-1,3-benzoxazin-8-yl]-2-morpholin-4-ylbenzoic acid] registered an EC50 of 2.5 nM. With `Cn1cc(-c2cc(Cl)c(C(=O)N3Cc4cccc(-c5ccc(C(=O)O)c(N6CCOCC6)c5)c4CO3)c(Cl)c2)cn1` [Compound 14-8, 4-[3-[2,6-Dichloro-4-(1-methylpyrazol-4-yl)benzoyl]-1,4-dihydro-2,3-benzoxazin-8-yl]-2-morpholin-4-ylbenzoic acid] the figure was 70 nM; with `COCCN1CCN(c2cc(Cl)c(C(=O)N3COc4c(cccc4-c4cc(N5C6CCC5COC6)c(C(=O)O)cc4F)C3)c(Cl)c2)CC1` [Compound 14-9, 4-[3-[2,6-Dichloro-4-[4-(2-methoxyethyl)piperazin-1-yl]benzoyl]-2,4-dihydro-1,3-benzoxazin-8-yl]-5-fluoro-2-(3-oxa-8-azabicyclo[3.2.1]octan-8-yl)benzoic acid], 3.7 nM. With `CC(C)(O)Cn1cc(-c2cc(Cl)c(C(=O)N3COc4c(cccc4-c4ccc(C(=O)O)c(N5CCOCC5)c4)C3)c(Cl)c2)cn1` [Compound 15-1, 4-[3-[2,6-Dichloro-4-[1-(2-hydroxy-2-methylpropyl)pyrazol-4-yl]benzoyl]-2,4-dihydro-1,3-benzoxazin-8-yl]-2-morpholin-4-ylbenzoic acid] the figure was 4.9 nM; with `C[C@H](O)Cn1cc(-c2cc(Cl)c(C(=O)N3COc4c(cccc4-c4ccc(C(=O)O)c(N5CCOCC5)c4)C3)c(Cl)c2)cn1` [Compound 15-2, 4-[3-[2,6-Dichloro-4-[1-[(2S)-2-hydroxypropyl]pyrazol-4-yl]benzoyl]-2,4-dihydro-1,3-benzoxazin-8-yl]-2-morpholin-4-ylbenzoic acid], 21 nM.

Compound `COC[C@H](O)Cn1cc(-c2cc(Cl)c(C(=O)N3COc4c(cccc4-c4cc(N5CCOCC5)c(C(=O)O)cc4F)C3)c(Cl)c2)cn1` [Compound 15-3, 4-[3-[2,6-Dichloro-4-[1-[(2R)-2-hydroxy-3-methoxypropyl]pyrazol-4-yl]benzoyl]-2,4-dihydro-1,3-benzoxazin-8-yl]-5-fluoro-2-morpholin-4-ylbenzoic acid] showed an EC50 of 1.5 nM. This EC50 is about 14-fold lower than that of the compound before. With `COC[C@H](O)Cn1cc(-c2cc(Cl)c(C(=O)N3COc4c(cccc4-c4ccc(C(=O)O)c(N5CCOCC5)c4)C3)c(Cl)c2)cn1` [Compound 15-4, 4-[3-[2,6-Dichloro-4-[1-[(2R)-2-hydroxy-3-methoxypropyl]pyrazol-4-yl]benzoyl]-2,4-dihydro-1,3-benzoxazin-8-yl]-2-morpholin-4-ylbenzoic acid] the figure was 6.8 nM; with `CC1(O)CC2(CN(c3cc(Cl)c(C(=O)N4COc5c(cccc5-c5cc(N6C7CCC6COC7)c(C(=O)O)cc5F)C4)c(Cl)c3)C2)C1` [Compound 16-1, 4-[3-[2,6-Dichloro-4-(6-hydroxy-6-methyl-2-azaspiro[3.3]heptan-2-yl)benzoyl]-2,4-dihydro-1,3-benzoxazin-8-yl]-5-fluoro-2-(3-oxa-8-azabicyclo[3.2.1]octan-8-yl)benzoic acid], 13 nM. To `COC1(C)CC2(CN(c3cc(Cl)c(C(=O)N4COc5c(cccc5-c5cc(N6C7CCC6COC7)c(C(=O)O)cc5F)C4)c(Cl)c3)C2)C1` [Compound 16-2, 4-[3-[2,6-Dichloro-4-(6-methoxy-6-methyl-2-azaspiro[3.3]heptan-2-yl)benzoyl]-2,4-dihydro-1,3-benzoxazin-8-yl]-5-fluoro-2-(3-oxa-8-azabicyclo[3.2.1]octan-8-yl)benzoic acid] belongs 1.5 nM. With `C[C@@H]1CN(C)CCN1c1cc(Cl)c(C(=O)N2COc3c(cccc3-c3cc(N4C5CCC4COC5)c(-c4n[nH]c(=O)o4)cc3F)C2)c(Cl)c1` [Compound 16-3, 5-[4-[3-[2,6-Dichloro-4-[(2R)-2,4-dimethylpiperazin-1-yl]benzoyl]-2,4-dihydro-1,3-benzoxazin-8-yl]-5-fluoro-2-(3-oxa-8-azabicyclo[3.2.1]octan-8-yl)phenyl]-3H-1,3,4-oxadiazol-2-one] the figure was 17 nM; with `C[C@@H]1CN(C)CCN1c1cc(Cl)c(C(=O)N2COc3c(cccc3-c3cc(N4C5CCC4COC5)c(-c4nnn[nH]4)cc3F)C2)c(Cl)c1` [Compound 16-4, [2,6-Dichloro-4-[(2R)-2,4-dimethylpiperazin-1-yl]phenyl]-[8-[2-fluoro-5-(3-oxa-8-azabicyclo[3.2.1]octan-8-yl)-4-(1H-tetrazol-5-yl)phenyl]-2,4-dihydro-1,3-benzoxazin-3-yl]methanone], 110 nM. `Cn1cc(-c2cc(Cl)c(C(=O)N3COc4c(cccc4-c4ccc(-c5nnn[nH]5)c(N5CCOCC5)c4)C3)c(Cl)c2)cn1` [Compound 16-5, [2,6-Dichloro-4-(1-methylpyrazol-4-yl)phenyl]-[8-[3-morpholin-4-yl-4-(1H-tetrazol-5-yl)phenyl]-2,4-dihydro-1,3-benzoxazin-3-yl]methanone] returned an EC50 of 200 nM. `COC1CN(c2cc(Cl)c(C(=O)N3COc4c(cccc4-c4cc(N5C6CCC5COC6)c(C(=O)NS(C)(=O)=O)cc4F)C3)c(Cl)c2)C1` [Compound 16-6, 4-[3-[2,6-Dichloro-4-(3-methoxyazetidin-1-yl)benzoyl]-2,4-dihydro-1,3-benzoxazin-8-yl]-5-fluoro-N-methylsulfonyl-2-(3-oxa-8-azabicyclo[3.2.1]octan-8-yl)benzamide] came in with an EC50 of 170 nM. With `O=C(O)c1cc(F)c(-c2cccc3c2OCN(C(=O)c2c(Cl)cc(N4CC5(C4)CC(F)(F)C5)cc2Cl)C3)cc1N1C2CCC1COC2` [Compound 16-7, 4-[3-[2,6-Dichloro-4-(6,6-difluoro-2-azaspiro[3.3]heptan-2-yl)benzoyl]-2,4-dihydro-1,3-benzoxazin-8-yl]-5-fluoro-2-(3-oxa-8-azabicyclo[3.2.1]octan-8-yl)benzoic acid] the figure was 1.4 nM; with `O=C(O)c1cc(F)c(-c2cccc3c2OCN(C(=O)c2c(Cl)cc(N4CC5(CC(F)C5)C4)cc2Cl)C3)cc1N1C2CCC1COC2` [Compound 16-8, 4-[3-[2,6-Dichloro-4-(6-fluoro-2-azaspiro[3.3]heptan-2-yl)benzoyl]-2,4-dihydro-1,3-benzoxazin-8-yl]-5-fluoro-2-(3-oxa-8-azabicyclo[3.2.1]octan-8-yl)benzoic acid], 3.9 nM; with `Cn1nnc(-c2cc(Cl)c(C(=O)N3COc4c(cccc4-c4cc(N5C6CCC5COC6)c(C(=O)O)cc4F)C3)c(Cl)c2)n1` [Compound 16-9, 4-[3-[2,6-Dichloro-4-(2-methyltetrazol-5-yl)benzoyl]-2,4-dihydro-1,3-benzoxazin-8-yl]-5-fluoro-2-(3-oxa-8-azabicyclo[3.2.1]octan-8-yl)benzoic acid], 12 nM.

As for `CC(C)Sc1cc(Cl)c(C(=O)N2COc3c(cccc3-c3ccc(C(=O)O)c(N4CCOCC4)c3)C2)c(Cl)c1` [Compound 16-10, 4-[3-(2,6-Dichloro-4-propan-2-ylsulfanylbenzoyl)-2,4-dihydro-1,3-benzoxazin-8-yl]-2-morpholin-4-ylbenzoic acid], the EC50 was found to be 9.3 nM. `COCCN1CCC(c2cc(Cl)c(C(=O)N3COc4c(cccc4-c4cc(N5CCOCC5)c(C(=O)O)cc4F)C3)c(Cl)c2)CC1` [Compound 16-11, 4-[3-[2,6-Dichloro-4-[1-(2-methoxyethyl)piperidin-4-yl]benzoyl]-2,4-dihydro-1,3-benzoxazin-8-yl]-5-fluoro-2-morpholin-4-ylbenzoic acid] came in with an EC50 of 7.5 nM.

Consider `O=C(O)c1cc(F)c(-c2cccc3c2OCN(C(=O)c2c(Cl)cc(C4COC4)cc2Cl)C3)cc1N1CCOCC1` [Compound 16-12, 4-[3-[2,6-Dichloro-4-(oxetan-3-yl)benzoyl]-2,4-dihydro-1,3-benzoxazin-8-yl]-5-fluoro-2-morpholin-4-ylbenzoic acid], for which the response was half-maximal at 9.8 nM (EC50). With `C[C@@H]1CN(C)CCN1c1cc(Cl)c(C(=O)N2COc3c(cccc3-c3cc(N(C)[C@@H]4CCOC4)c(C(=O)O)cc3F)C2)c(Cl)c1` [Compound 16-13, 4-[3-[2,6-Dichloro-4-[(2R)-2,4-dimethylpiperazin-1-yl]benzoyl]-2,4-dihydro-1,3-benzoxazin-8-yl]-5-fluoro-2-[methyl-[(3R)-oxolan-3-yl]amino]benzoic acid] the figure was 4.4 nM. `CN(c1cc(-c2cccc3c2OCN(C(=O)c2c(Cl)cc(-c4cnn(C)c4)cc2Cl)C3)c(F)cc1C(=O)O)C1(C)COC1` [Compound 16-14, 4-[3-[2,6-Dichloro-4-(1-methylpyrazol-4-yl)benzoyl]-2,4-dihydro-1,3-benzoxazin-8-yl]-5-fluoro-2-[methyl-(3-methyloxetan-3-yl)amino]benzoic acid] yielded an EC50 of 6.8 nM. With `O=C(O)c1cc(F)c(-c2cccc3c2OCN(C(=O)c2c(Cl)cc(N4CC5(COCCO5)C4)cc2Cl)C3)cc1N1C2CCC1COC2` [Compound 16-15, 4-[3-[2,6-Dichloro-4-(5,8-dioxa-2-azaspiro[3.5]nonan-2-yl)benzoyl]-2,4-dihydro-1,3-benzoxazin-8-yl]-5-fluoro-2-(3-oxa-8-azabicyclo[3.2.1]octan-8-yl)benzoic acid] the figure was 3 nM. In turn, `N#CC1(F)CN(c2cc(Cl)c(C(=O)N3COc4c(cccc4-c4cc(N5C6CCC5COC6)c(C(=O)O)cc4F)C3)c(Cl)c2)C1` [Compound 16-16, 4-[3-[2,6-Dichloro-4-(3-cyano-3-fluoroazetidin-1-yl)benzoyl]-2,4-dihydro-1,3-benzoxazin-8-yl]-5-fluoro-2-(3-oxa-8-azabicyclo[3.2.1]octan-8-yl)benzoic acid] displayed an EC50 of 13 nM.
